Patent EP0733369A1, “Protease inhibitors, a DNA construct for the expression of a protease and a process for measuring proteases and/or protease inhibitors” (Stichting REGA V.Z.W., priority 1995, dated 1996)
“Also recorded” adds a separate entry of the source. Structures can show the parent of a compound that is named as a salt.

Legend:
[1] = target: T1, gelatinase B from neutrophils (Homo sapiens, UniProt P14780); assay: gelatinase (inhibitor) microtiter plate assay with biotinylated gelatin; format: biochemical; set-up: endogenous in cells; host or cells: human neutrophils stimulated with lipopolysaccharide; conditioned medium; conditions: for gelatinase B inhibitory activity in the plate assay (in words): qualitative statements
T1 sequence (P14780 94-707): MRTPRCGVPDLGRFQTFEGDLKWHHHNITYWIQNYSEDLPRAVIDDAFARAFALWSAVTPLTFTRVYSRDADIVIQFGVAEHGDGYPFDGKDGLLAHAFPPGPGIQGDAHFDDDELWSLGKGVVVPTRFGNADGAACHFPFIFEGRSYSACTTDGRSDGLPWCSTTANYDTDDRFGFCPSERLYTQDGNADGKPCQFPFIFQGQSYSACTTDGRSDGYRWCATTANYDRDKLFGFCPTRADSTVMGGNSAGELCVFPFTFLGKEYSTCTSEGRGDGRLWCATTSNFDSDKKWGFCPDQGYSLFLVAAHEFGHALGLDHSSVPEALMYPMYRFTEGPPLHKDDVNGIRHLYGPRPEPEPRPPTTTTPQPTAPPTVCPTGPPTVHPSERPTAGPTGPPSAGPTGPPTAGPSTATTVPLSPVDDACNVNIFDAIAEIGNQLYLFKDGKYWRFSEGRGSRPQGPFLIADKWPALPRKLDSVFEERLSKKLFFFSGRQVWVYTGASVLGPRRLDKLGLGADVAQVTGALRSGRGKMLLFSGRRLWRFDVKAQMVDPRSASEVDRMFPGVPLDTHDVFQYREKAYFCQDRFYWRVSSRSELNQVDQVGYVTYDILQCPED
Method: The measurement of gelatinase activity was based on the detection of non-degraded biotinylated gelatin with a streptavidin-peroxidase conjugate. This test is based on the biotin-avidin method described by Sorbi et al. (25) but modified to a one plate assay (schematically represented in Fig. 1.). Gelatin (1mg/ml) was dissolved in 0.1 M sodium bicarbonate pH 8.3 by heating to 40°C. Biotin-N-hydroxysuccinimide ester was dissolved in dimethylsulfoxide (Me2SO) and was added to the gelatin in a 15-fold molar excess. The mixture was allowed to react overnight at 4°C and the biotinylated gelatin was then dialyzed against phosphate buffered saline (PBS). Neutrophil granulocyte (Neu) medium was collected from human neutrophils after stimulation with lipopolysaccharide (1µg/ml) overnight at 37°C in Minimal Essential Medium. Cells were removed by 10 min centrifugation at 1000 g. Purified gelatinase was obtained by one-step affinity chromatography of neutrophil medium on a gelatin-sepharose column as described (8).
Modified flat bottom 96-well ELISA plates were coated overnight with 0.5 µg/ml avidin in distilled water. The plates were then blocked with 0.3% bovine serum albumin (BSA, Sigma) in PBS for 1 hour at 37°C. Biotinylated gelatin was diluted to 50 µg/ml and 100µl was added to the avidin-coated wells. After incubation for one hour at 20°C, the plate was rinsed with PBS. Medium containing the secreted gelatinases from human neutrophils (dilution range 1/3-1/3^11) and the inhibitors were diluted in incubation buffer (50 mM Tris-HCl pH 7.5, 10 mM CaCl2, 0.02% (W/V) NaN3, 1% (V/V) Triton X-100) and 100 µl of each were mixed. 190 µl of the mixture was added to the gelatin-coated plates and allowed to digest the gelatin overnight at 37°C. The plates were then washed with PBS and each well was incubated with 100 µl peroxidase-conjugated-streptavidin at a 1:2000 dilution for 1 hour at 37°C. After rinsing the plate, the ABTS substrate was added (0.5 mg/ml solution containing 0.1 M citric acid, 0.2 M Na2HPO4, pH 4.3, 0.07 µl/ml 30% H2O2) and the optical density was read at 405 nm after 10 min. incubation at room temperature. Additional information on published test systems used here for comparison.
Gelatin is biotinylated and bound to avidin-coated microtiter plates. By addition of gelatinases the number of free biotin groups decreases and proportionally less streptavidin-peroxidase is bound to the residual substrate. Bound streptavidin-peroxidase activity is measured spectrophotometrically by reaction of peroxide with ABTS. Inhibition of gelatinase is obtained by the addition of inhibitor to a known amount of gelatinase prior to application to the plates. The peroxidase activity increases proportionally with the inhibitory activity.
Plates were first coated with 10µg/ml avidin and 50µg/ml biotinylated gelatin (theoretically saturating the avidin binding sites). As the sensitivity of the assay is dependent on the detection of the minimal amount of degraded biotinylated gelatin, we investigated wether decreasing the amount of biotin-gelatin (50 µg/ml-23 ng/ml) bound to the avidin-coated (10µg/ml) plate increased the sensitivity of the assay. […] Thus it was verified whether a decrease in the avidin coating could make the assay more sensitive (Fig. 2). […] In all further examples plates were coated with 0.5 µg/ml avidin and 50 µg/ml gelatin-biotin.
The titration curves of gelatinase inhibition were always related to a blanc curve and this for enzyme concentrations within the slope of the curve (vertical dotted lines Fig. 3). The decrease in enzyme activity to which the inhibitor-incubated sample corresponded was defined as the inhibition factor (IF).

[2] = target: T1, gelatinase B from neutrophils; assay: zymography inhibition assay, inhibitor in developing buffer; format: biochemical; set-up: The 92 kDa neutrophil gelatinase is indicated with an arrowhead; endogenous in cells; host or cells: human neutrophils; purified from conditioned medium on gelatin-Sepharose; conditions: qualitative statements
Method: Quantitative zymography was performed as described (7,8). Briefly, 40 µl of loading buffer was added to 40 µl of each sample and applied on 7.5% polyacrylamide gels which had been co-polymerised with 0.1% (w/v) gelatin. Stacking gels contained 5% polyacrylamide. The gels were run at 4°C for 16h at 90V. The gels were then incubated in washing buffer (50 mM Tris-HCl pH 7.5, 10mM CaCl2, O.O2% (W/V) NaN3, 2.5% (v/v) Triton X-100) at room temperature, 2x20 min to remove sodium dodecyl sulfate and overnight in developing buffer (50 mM Tris-HCl pH 7.5, 10mM CaCl2, O.O2% (w/v) NaN3, 1% (v/v) Triton X-100) at 37°C. The gels were then stained in Coomassie brilliant blue R-250 and destained in methanol/acetic acid. The sites of gelatinase activity appeared as unstained bands on a blue background and were quantified by computerised image analysis through scanning densitometry with a PDI scanner (Pharmacia, Belgium) and the PDI software package. For inhibition experiments, the inhibitors were dissolved in the developing buffer at the appropriate concentration. […] The enzyme activity was developed by staining of the substrate with Coomassie blue and quantification of the substrate digestion by scanning densitometry. […] The enzyme activity was developed by staining of the substrate with Coomassie blue and quantification of the substrate digestion by scanning densitometry. […]

[3] = tetracycline concentration 1.67 mg/ml
[4] = tetracycline concentration 3.33 mg/ml
[5] = tetracycline concentration 3.33 mg/ml, HCl
[6] = tetracycline concentration 0,83 mg/ml

Compound	Inhibition factor (IF) [1, 3]	Inhibition factor (IF) [1, 4]	gelatinase B inhibitory activity in the plate assay (in words) [1]	Inhibition factor (IF) [1, 6]	also measured
4-epitetracycline HCl	3	–	–	–	–
7-aminominocycline HCl	–	precipitation	–	–	–
Cc1c2c(c(O)c3c(O)cccc13)C(=O)C1(O)C(O)=C(C(N)=O)C(=O)C(N(C)C)C1C2 (centres unmarked) [4-epianhydrotetracycline HCl]	3	precipitation	more active	2	–
CN(C)c1ccc(O)c2c1C[C@H]1C[C@H]3[C@@H](N(C)C)C(O)=C(C(N)=O)C(=O)[C@@]3(O)C(O)=C1C2=O [4-epiminocycline HCl]	–	3	less active	–	–
CN(C)[C@@H]1C(O)=C(C(N)=O)C(=O)[C@@]2(O)C(O)=C3C(=O)c4c(O)cccc4C[C@H]3C[C@@H]12.Cl [6-deoxy-6-demethyltetracycline HCl]	5	8	–	3	–
Cc1c2c(c(O)c3c(O)ccc(Cl)c13)C(=O)C1(O)C(O)=C(C(N)=O)C(=O)C(N(C)C)C1C2 (centres unmarked) [anhydrochlortetracycline HCl]	–	–	–	–	Inhibition factor (IF) ([1]; tetracycline concentration 1.67 mg/ml, HCl): 2; Inhibition factor (IF) [1, 5]: 6
CN(C)[C@@H]1C(=O)C(C(N)=O)=C(O)[C@@]2(O)C(=O)C[C@@H]([C@]3(C)OC(=O)c4c(O)ccc(Cl)c43)C[C@@H]12 [isochlortetracycline HCl]	–	3	–	–	–
C=C1c2cccc(O)c2C(=O)C2=C(O)[C@]3(O)C(=O)C(C(N)=O)=C(O)[C@@H](N(C)C)[C@@H]3[C@@H](O)[C@H]12 [metacycline HCl]	8	27	very active	3	–
CN(C)[C@@H]1C(O)=C(C(N)=O)C(=O)[C@@]2(O)C(O)=C3C(=O)c4c(O)cccc4[C@@](C)(O)[C@H]3C[C@@H]12 [tetracycline HCl]	3	8	–	–	–

The next lines start with results.

Inhibition factor (IF) [1, 3]	Inhibition factor (IF) [1, 4]	gelatinase B inhibitory activity in the plate assay (in words) [1]	Inhibition factor (IF) [1, 6]	Compound	also measured
–	–	less active	–	Cc1c2c(c(O)c3c(O)ccc(Cl)c13)C(=O)C1(O)C(O)=C(C(N)=O)C(=O)C(N(C)C)C1C2 (centres unmarked) [4-epianhydrochlortetracycline HCl]	Inhibition factor (IF) [1, 5]: 3
9	precipitation	less active	3	CN(C)C1C(=O)C(C(N)=O)=C(O)C2(O)C(=O)C3=C(O)c4c(O)ccc(Cl)c4C(C)(O)C3CC12 (centres unmarked) [4-epichlortetracycline HCl]	–
3	20	more active	–	CN(C)C1C(=O)C(C(N)=O)=C(O)C2(O)C(=O)C3=C(O)c4c(O)cccc4C(C)(O)C3C(O)C12 (centres unmarked) [4-epioxytetracyline base]	–
27	45	–	9	CN(C)[C@@H]1C(O)=C(C(N)=O)C(=O)[C@@]2(O)C(O)=C3C(=O)c4c(O)ccc(Cl)c4[C@@](C)(O)[C@H]3C[C@@H]12 [chlortetracycline HCl]	gelatinase B inhibitory activity in the plate assay (in words) ([1]; listed as Chlortetracycline HCl, HCl): most potent inhibitor; gelatinase B inhibitory activity in the plate assay (in words) ([1]; listed as Chlortetracycline, HCl): more active as a gelatinase inhibitor than the antibiotically more potent minocycline; also recorded: much more active than tetracycline; also recorded: most active
–	–	not active	–	CN(C)[C@@H]1C(O)=C(C(N)=O)C(=O)[C@@]2(O)C(O)=C3C(=O)c4c(O)ccc(Cl)c4[C@@H](O)[C@H]3C[C@@H]12 [demethylchlortetracycline HCl]	–
–	–	not active	–	C[C@H]1c2cccc(O)c2C(=O)C2=C(O)[C@]3(O)C(=O)C(C(N)=O)=C(O)[C@@H](N(C)C)[C@@H]3[C@@H](O)[C@@H]21 [doxycycline hyclate]	–
3	8	–	–	CN(C)c1ccc(O)c2c1C[C@H]1C[C@H]3[C@H](N(C)C)C(O)=C(C(N)=O)C(=O)[C@@]3(O)C(O)=C1C2=O [minocycline HCl]	inhibition of gelatinase B on zymography (in words) [2]: inhibits gelatinase B in a dose-dependent way; gelatinase B inhibitory activity in the plate assay (in words) ([1]; listed as minocyclin, HCl): active as an inhibitor; gelatinase B inhibitory activity in the plate assay (in words) ([1]; listed as minocycline, HCl): confirmed in the plate assay; also recorded: active
